T1: wild type human carboxypeptidase A1 (Homo sapiens, UniProt P15085)
T1 sequence (P15085 111-419): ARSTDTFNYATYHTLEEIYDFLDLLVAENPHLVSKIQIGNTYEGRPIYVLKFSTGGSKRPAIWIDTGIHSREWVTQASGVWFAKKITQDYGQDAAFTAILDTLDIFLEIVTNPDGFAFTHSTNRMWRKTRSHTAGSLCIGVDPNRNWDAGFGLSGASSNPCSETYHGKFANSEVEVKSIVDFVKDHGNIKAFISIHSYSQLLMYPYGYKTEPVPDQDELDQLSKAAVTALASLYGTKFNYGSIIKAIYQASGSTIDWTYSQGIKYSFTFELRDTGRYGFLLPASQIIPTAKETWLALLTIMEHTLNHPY


How the values were obtained:
[1] = Prodrug toxicity, maximum tolerated dose; conditions: Swiss nu/nu mice, IV daily for 5 days
[2] = in vivo; conditions: mouse, iv
[3] = system: 268gly; assay: Enzyme kinetics of prodrugs with 268gly mutant of human CPA1 (coupled assay); type: biochemical
Description: (§1) As indicated herein, the in vivo stable prodrug of the present invention should be a better substrate for a mutant enzyme than the corresponding wild type enzyme in order for the stable prodrug to be activated selectively at the tumour. […] The most relevant kinetic constant in the table is the kcat/Km, which provides an estimate of the second order rate constant for the enzyme catalyzed conversion of prodrug to methotrexate. Thus, the larger the kcat/Km, the more efficient the enzyme with a particular substrate. […] Thus, the single mutation at 268 from thr to gly converted very poor substrates in the wild type enzyme to excellent substrates in the mutant enzyme. […] Thus, the compounds are much better substrates for the mutant enzyme than the wild type enzyme which permits very specific tumor targeted activation of the nontoxic, stable prodrug to the active agent.
(§2) Kinetics were determined by a modification of the coupled assay of Kuefner, et al (1989) Biochemistry 28 2288-2297 in which the product MTX is converted by excess carboxypeptidase G to the pteroate of MTX. In this assay the reaction is followed spectrophotometrically at 315 nm; at this wavelength the change in molar absorbtivity for the coupled reaction was determined to be 9.57 mM^-1 cm^-1. Assays were performed at 25° C. in 25 mM tris-HCl, 100 mM NaCl, pH 7.4. Prodrugs were preincubated at 25° C. with buffer and 17 milliunits of Sigma #C-9658 carboxypeptidase G in 1 ml total volume. Assay was initiated with carboxypeptidase A or the appropriate mutant. Initial velocities were obtained, and standard Michaelis-Menten calculations were used to determine kinetic constants (in Biochemistry, Lehninger, A. L. 1970, Worth Publishers, Inc, NY).

[4] = system: 268ala; assay: Enzyme kinetics of prodrugs with 268ala mutant of human CPA1 (coupled assay); type: biochemical; conditions: 25° C., pH 7.4
Description: as §1, §2

[5] = target: T1, wild type human carboxypeptidase A1; assay: Enzyme kinetics of prodrugs with wild type human carboxypeptidase A1 (coupled assay); type: biochemical
Description: as §1, §2

[6] = mouse, in vivo, iv
[7] = IEF of proCPA and mature CPA; type: physicochemical
Protocol: The final OD600 was 14. […] All subsequent buffers contained 0.1 mM Zn-acetate. […] Total protein=368 mg.

[8] = substrate: CN(Cc1cnc2nc(N)nc(N)c2n1)c1ccc(C(=O)N[C@@H](CCC(=O)O)C(=O)N[C@@H](Cc2ccccc2)C(=O)O)cc1; assay: Enzyme kinetics of prodrugs with wild type human carboxypeptidase A1 (coupled assay); type: biochemical; conditions: other: Human CPA1, 25° C., pH 7.4
Description: as §1
(§3) Kinetics were determined by a modification of the coupled assay of Kuefner, et al (1989) Biochemistry 28 2288-2297 in which the product MTX is converted by excess carboxypeptidase G to the pteroate of MTX. In this assay the reaction is followed spectrophotometrically at 315 nm; at this wavelength the change in molar absorbtivity for the coupled reaction was determined to be 9.57 mM^-1 cm^-1. Assays were performed at 25° C. in 25 mM tris-HCl, 100 mM NaCl, pH 7.4. […]

[9] = substrate: CN(Cc1cnc2nc(N)nc(N)c2n1)c1ccc(C(=O)N[C@@H](CCC(=O)O)C(=O)N[C@@H](Cc2ccccc2C2CCCC2)C(=O)O)cc1; assay: as above; type: biochemical; conditions: other: Human CPA1, 25° C., pH 7.4
Description: as §1, §3

Molecule | maximum tolerated dose (MTD) [1] [mg/kg] | MTD [2] [mg/kg] | kcat/Km ([3]; 268Gly) [µM⁻¹ s⁻¹] | activity of 268Gly relative to CPA1 with the L-phenylalanine prodrug of MTX ([3]; 268Gly with prodrug vs human CPA1 with L-phenylalanine prodrug) [times] | Km ([3]; 268gly, 25° C., pH 7.4) [nM] | kcat ([3]; 268gly, 25° C., pH 7.4) [s⁻¹] | Km [4] [µM] | kcat [4] [s⁻¹] | human CPA catalyzed reaction (in words) [5] | kcat/Km for human CPA1 compared with that of the L-phenylalanine prodrug (in words) [5] | kcat (symbol ND) ([5]; Human CPA1, rate too slow to assay) | dose showing some toxicity [6] [mg/kg] | pI [7] | Km [8] [µM] | Km [9] [µM]
CN(Cc1cnc2nc(N)nc(N)c2n1)c1ccc(C(=O)N[C@@H](CCC(=O)O)C(=O)O)cc1 [methotrexate, reference compound] | 2.5 | 4 | – | – | – | – | – | – | – | – | – | – | – | – | –
CN(Cc1cnc2nc(N)nc(N)c2n1)c1ccc(C(=O)N[C@@H](CCC(=O)O)C(=O)N[C@@H](Cc2cccc(C3CCC3)c2)C(=O)O)cc1 | – | < 30 | 1.8 | 4 | 1800 | 3 | 160 | 0.12 | not measureable | much lower | ND (not determined; rate to slow assay. kcat ≤ 0.0005/sec.) | 30 | – | – | –
wild type human carboxypeptidase A1 (Homo sapiens) (protein) ARSTDTFNYATYHTLEEIYDFLDLLVAENPHLVSKIQIGNTYEGRPIYVLKFSTGGSKRPAIWIDTGIHSREWVTQASGVWFAKKITQDYGQDAAFTAILDTLDIFLEIVTNPDGFAFTHSTNRMWRKTRSHTAGSLCIGVDPNRNWDAGFGLSGASSNPCSETYHGKFANSEVEVKSIVDFVKDHGNIKAFISIHSYSQLLMYPYGYKTEPVPDQDELDQLSKAAVTALASLYGTKFNYGSIIKAIYQASGSTIDWTYSQGIKYSFTFELRDTGRYGFLLPASQIIPTAKETWLALLTIMEHTLNHPY | – | – | – | – | – | – | – | – | – | – | – | – | 6.2 | 4.3 | 61
